{
  "source": "patent EP3692101B1",
  "about": "“BRILLIANT BLUE (BBG) DYE DERIVATIVES AND STAINING COMPOSITIONS COMPRISING THE SAME FOR SELECTIVELY STAINING BIOLOGICAL SUBSTRATES” (priority 2017, dated 2019)",
  "key": {"[1]": {"settings": "cited from earlier work"}, "[2]": {"system": "proteins and protein chains", "test": "SDS-PAGE protein staining, whole set of molecular weight standards (spots versus background)", "settings": "result in words; dye 0.05% by weight/volume", "protocol": "The dye molecules according to the invention were tested in order to show their higher selectivity for proteins and protein chains with respect to BBG. For this purpose, SDS-PAGE electrophoresis tests were performed in order to compare the Benzyl-BBG according to the invention (Example 4) and the Ethyl-BBG according to Example 2 with a commercially available grade of BBG (Sigma-Aldrich 90% purity).\nA set of molecular weight standards was created by mixing different amounts of known proteins (E.coli beta-galactosidase - 116.3 kDa, bovine serum albumin - 66.5 kDa, chicken ovalbumin - 42.7 kDa and equine cytochrome C - 12,384 Da) in such a way as to obtain bands of similar intensity. In order to do so, an inverse relationship between amount (as nanograms of protein) and molecular weight of any protein was initially achieved, and small adjustments were experimentally made. Polyacrylamide gel electrophoresis was done in 9% precast gels (Bio-Rad) at 20V for 60-90 minutes in denaturing conditions; standards were loaded in triplicate on separate lanes. […]"}, "retina": {"system": "retina", "test": "Ex-vivo staining of porcine eyes, dye extraction and HPLC quantification in retina near the peeled area", "settings": "ex-vivo swine eyes; for increase in the dyes content in the retina with respect to the staining formulation according to the invention: p=0.004", "protocol": "(§1) To this end, a staining composition according to the invention was prepared having the following formulation (% by weight). • dye: Benzyl-BBG according to Example 4: 0.025% • Sodium phosphate monobasic dihydrate: 0.368% (SIGMA ALDRICH) • Sodium phosphate bibasic dihydrate: 0.711% (SIGMA ALDRICH) • Sodium chloride: 0.400% (SIGMA ALDRICH) • water for injectables: up to 100% (FRESENIUS KABI ITALIA S.R.L.).\n(§2) This staining composition was compared with two staining composition available on the market, more specifically: • a staining composition including BBG and marketed under the trade name of ILM-BLUE® (D.O.R.C. Dutch Ophthalmic Research Center (International) B.V.), and with • a staining composition including methyl-BBG according to WO 2016/189475 marketed under the trade name of VIEW-ILM (AL.CHI.MI.A. S.r.l.).\n(§3) Porcine eyes were obtained from a slaughterhouse and were prepared within 5 hours after death, the eyes were placed on a plastic holder, and a 360-degree limbal incision was performed for corneal removal, followed by total iris removal. Whole vitreous was gently extracted.\nNext, 1 ml of BSS was placed in the eye and 40 µl of dye formulation was gently placed in the eye, by a Gilson pipet, for 30 seconds; then the BSS along the dye were removed and the eye rinsed with BSS. […]\nRetina and ILM tissue samples obtained as described above were weighed and homogenized in 250-500 µl of methanol. […] The residues were reconstituted in 100 µl of mobile phase by vortexing for 120 s, filtered again on 0.45 µm filters and, finally, 20 µl aliquots were injected onto the chromatographic apparatus (each sample was analyzed in triplicate). […]\n(§4) Quantification of the dye molecule was performed using 6-10 points external regression curves performed at 613 nm. […]\n(§5) In the data analysis, statistical differences of ex-vivo data are determined using analysis of variance (ANOVA) followed by the Bonferroni-Dunn post hoc pairwise comparison procedure. […]"}, "ILM": {"system": "ILM", "test": "Ex-vivo staining of porcine eyes, dye extraction and HPLC quantification in peeled ILM", "settings": "ex-vivo swine eyes; for amounts of the dye molecule in the ILM (mean): 40 µl dye formulation in 1 ml BSS for 30 seconds, mean of 6, BBG 0.025% (ILM-BLUE), methyl-BBG 0.03% (VIEW-ILM), Benzyl-BBG 0.025%", "protocol": "as §1, §2, §3\nNext, 1 ml of BSS was placed in the eye and 40 µl of dye formulation was gently placed in the eye, by a Gilson pipet, for 30 seconds; then the BSS along the dye were removed and the eye rinsed with BSS.\nThe peeling of ILM was carried out by forceps and the tissue placed in an Eppendorf tube, the rest of retina near the area of ILM peeling was collected and placed in another Eppendorf tube.\nThe average amount of ILM tissue was of about 2 mg, whereas the average amount of retina tissue was of about 20 mg.\nAll tissues (ILM and retina) were stored at -20°C before HPLC analysis.\nRetina and ILM tissue samples obtained as described above were weighed and homogenized in 250-500 µl of methanol. The homogenates were then transferred in an Eppendorf tube, ultrasonically extracted using a Branson Sonifier, centrifuged at 1,000 x g for 10 min and filtered on 0.45 µm syringe filters. The filtrates were transferred into labeled, clean test tubes and evaporated to dryness under a stream of nitrogen. The residues were reconstituted in 100 µl of mobile phase by vortexing for 120 s, filtered again on 0.45 µm filters and, finally, 20 µl aliquots were injected onto the chromatographic apparatus (each sample was analyzed in triplicate). […]\nas §4, §5"}},
  "data": [
    {"smiles": "c1ccc(CNCc2ccccc2)cc1", "note": "[dibenzylamine]", "values": [
      {"measurement": "pKa", "setting": "[1]", "value": 8.52}
    ]},
    {"smiles": "CCOc1ccc(N(Cc2ccccc2)c2ccc(C(=C3C=CC(=[N+](CC)Cc4cccc(S(=O)(=O)[O-])c4)C=C3C)c3ccc(N(CC)Cc4cccc(S(=O)(=O)O)c4)cc3C)cc2)cc1", "note": "[Benzyl-BBG]", "values": [
      {"measurement": "difference between the spot intensity of Benzyl-BBG and Ethyl-BBG", "setting": "[2]", "value": "No significant difference"},
      {"measurement": "amounts of the dye molecule in the retina (mean)", "setting": "retina; 40 µl dye formulation in 1 ml BSS for 30 seconds, mean of 6, BBG 0.025% (ILM-BLUE), methyl-BBG 0.03% (VIEW-ILM), Benzyl-BBG 0.025%", "value": 19.69, "unit": "ng/mg tissue"},
      {"measurement": "amounts of the dye molecule in the ILM (mean)", "setting": "ILM", "value": 214.88, "unit": "ng/mg tissue"},
      {"measurement": "amounts of the dye molecule in the ILM (mean)", "setting": "ILM; listed as benzyl-BBG", "value": "about 215 ng/mg tissue"},
      {"measurement": "increase of dye content in ILM with respect to the known formulation including BBG", "setting": "ILM; p = 0,002", "value": 2.9, "unit": "fold"},
      {"measurement": "increase of dye content in ILM with respect to the known formulation including methyl-BBG", "setting": "ILM; p<0,001", "value": 6.0, "unit": "fold"}
    ]},
    {"smiles": "CCOc1ccc(N(C)c2ccc(C(=C3C=CC(=[N+](CC)Cc4cccc(S(=O)(=O)[O-])c4)C=C3C)c3ccc(N(CC)Cc4cccc(S(=O)(=O)O)c4)cc3C)cc2)cc1", "note": "[methyl-BBG]", "values": [
      {"measurement": "increase in the dyes content in the retina with respect to the staining formulation according to the invention", "setting": "retina", "value": 10.9, "unit": "fold"}
    ]},
    {"smiles": "CCOc1ccc(Nc2ccc(C(=C3C=CC(=[N+](CC)Cc4cccc(S(=O)(=O)[O-])c4)C=C3C)c3ccc(N(CC)Cc4cccc(S(=O)(=O)O)c4)cc3C)cc2)cc1", "note": "[BBG, Coomassie Brilliant Blue G-250]", "values": [
      {"measurement": "increase in the dyes content in the retina with respect to the staining formulation according to the invention", "setting": "retina", "value": 20.1, "unit": "fold"}
    ]}
  ]
}
